Reference: US20180078576A1, “SULPHATED XYLANS FOR TREATMENT OR PROPHYLAXIS OF RESPIRATORY DISEASES” (Paradigm Biopharmaceuticals Limited, priority 2007, published 2018)
pIC50: −log10 of the molar value.

Experiments:
[1] = tested on: male C57Bl/6J mice exposed to cigarette smoke; assay: Mouse model of emphysema/COPD, acute cigarette smoke exposure; type: in vivo; settings: PPS inhaled 30 minutes before
Method: A mouse model of emphysema was used. Acute and chronic exposure of mice to cigarette smoke lead to lung responses that in part mimic the inflammatory and structural changes observed in COPD. In this model male C57Bl/6J mice are subjected to acute and chronic smoke exposure, with normal room air being the control situation. In the acute study mice were exposed to either room air or to the smoke of five cigarettes (approximately 12 mg of tar and 0.9 mg of nicotine) for 20 minutes. In the chronic study mice were exposed to either room air or to the smoke of three cigarettes/day for 5 days/week for 6 months. The 4 groups of mice were then further divided so that mice within each group also received PPS via an inhaled route.
In the acute exposure groups of mice pentosan polysulfate was given 30 minutes before exposure to cigarette smoke. Assessment of the efficacy of the drug for mice in the acute exposure groups involved assessment of trolox equivalent anti-oxidant capacity of the bronchoalveolar lavage fluid (BALF) at the end of smoke exposure. The BALF was examined for cytokines and chemokines that are associated with an inflammatory response. The levels of these agents were determined at 4 hours after exposure and at 24 hours after cigarette smoke exposure. A range of cytokines and chemokines was measured. […] A differential cell count of the cells in the BALF was also determined.

[2] = target: T1, Human leukocyte elastase (Homo sapiens, UniProt P08246); assay: Elastase assay with fluorogenic substrate; type: biochemical; settings: fluorogenic substrate MeOSuc-Ala-Ala-Pro-Val-amido-methylcoumarin, pH 7.4, 37° C., 60 minutes; read-out: IC50, inhibition of human leukocyte elastase activity
T1 sequence (P08246 30-267): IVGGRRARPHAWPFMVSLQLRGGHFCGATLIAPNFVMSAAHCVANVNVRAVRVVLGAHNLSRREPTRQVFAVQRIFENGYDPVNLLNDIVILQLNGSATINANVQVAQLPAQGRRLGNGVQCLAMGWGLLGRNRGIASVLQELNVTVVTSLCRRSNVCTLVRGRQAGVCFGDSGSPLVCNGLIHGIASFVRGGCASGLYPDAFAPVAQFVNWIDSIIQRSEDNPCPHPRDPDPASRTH
Method: Elastase is a protein that is a potential target for the treatment of COPD. Elastase assays were performed in 96-well plastic microplates for easy quantification by the fluorescent plate reader. Human leukocyte elastase (5 nM/well) was incubated in the presence of absence of pentosan polysulfate, or other sulfated polysaccharides, with the fluorogenic substrate MeOSuc-Ala-Ala-Pro-Val-amido-methylcoumarin (20 μM/well) in a sodium phosphate buffer, pH 7.4. The mixture was incubated at 37° C. for 60 minutes before the reaction was stopped by the addition of 10 μl/well of […] acetic acid and the mixture transferred to a 96-well microplate with fluorescence being measured using an excitation wavelength of 355 nm and an emission wavelength of 460 nm. Various concentrations of inhibitors were used to allow the calculation of the concentration of polysaccharide required to inhibit enzyme activity by 50% (IC50).

[3] = tested on: Guinea pigs sensitized to OVA and challenged with inhaled OVA; assay: Second guinea pig asthma model, parameters 8 hours after OVA inhalation; type: in vivo
Method: A slightly different animal model was also examined. In this model Guinea pigs were sensitized to OVA twice by an intraperitoneal injection of 0.5 ml saline containing 20 mg Al(OH)3 and 20 μg OVA. The sensitizations are performed on days 0 and 7. Three weeks after the last sensitization, animals were pre-treated with either vehicle or drugs 30 min prior to inhalation of OVA (at 10 mg/ml) for 6 min (allergen challenge). For the negative control, animals received either sensitization and challenge with saline or sensitization with saline and challenge with OVA. Animals were terminated and all parameters measured 8 hours after the provocation. Vehicle or drugs were administered intra-tracheally, 1 ml/kg body weight, 30 min before the intra-tracheal challenge with OVA. The vehicle for compounds was saline. Budesonide as the reference compound was dissolved in the vehicle at concentrations of 1 mg/ml. To measure airway resistance (RL.) and lung compliance (Cdyn) bronchoconstriction was evoked with aerosolized methacholine (3 mg/ml, 10 mg/ml and 30 mg/ml). The difference between baseline readings and that obtained after methacholine were used to calculate Cdyn and RL. Bronchoalveolar lavage (BAL) was performed immediately after the lung function measurements. BAL was analysed for protein content (as a measure of leakage) and leukocyte number, differential cell counts were performed to indicate what subsets of leukocytes were best affected by the drugs.

[4] = target: IL-13 (Homo sapiens, UniProt P35225); assay: IL-13 dependent proliferation of TF-1 cells; type: cell-based
IL-13, sequence (P35225 25-146): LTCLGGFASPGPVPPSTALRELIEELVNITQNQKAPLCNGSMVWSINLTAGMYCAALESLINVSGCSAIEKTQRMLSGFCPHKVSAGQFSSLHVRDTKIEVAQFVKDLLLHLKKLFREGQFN
Description: IL-13 is a cytokine with a key role in asthma and allergic disease (including allergic rhinitis) and it seems particularly important in […] the airway hyperreactivity seen with asthma (Wills-Karp, Immunol. Rev. 202:175-190, 2004). […] Pentosan polysulfate (PPS) and a DP5 sulfated xylan inhibited the proliferation of a human IL-13 responsive cell line. This occurs at very low doses and is not due to a toxic effect of the PPS because other, similarly sulfated polysaccharides, at the same concentrations of IL-13 and polysaccharide have no effect. These experiments utilize the TF-1 cells. TF-1 cells were originally established from a bone marrow sample from a person with severe pancytopenia. […]
The proliferation assays are carried out in 96-well microplates suitable for such assays (Falcon). […] The cells are counted with a Coulter Z2 Particle Counter and Size Analyzer (Coulter Electronics, England) and routinely 2.5×10^4 cells are added to microplate wells that contain either no IL-13 (negative control) or various dilutions of IL-13. When the effect of PPS is to be measured, the wells also contain various concentrations of this molecule. The cells proliferate for 48 hours at 37° C. in a humidified atmosphere, after which the number of cells present is quantified by staining with the AQUEOUS ONE dye (30 μl/well) for 3 hours and then absorbance is read at 490 nm.

Pentosan polysulfate [PPS]
Cellular infiltrate into BALF [1]: decreased
Numbers of neutrophils in BALF [1]: significantly attenuated
pIC50 [2]: ~5.74
Inhibition of RL (airway resistance) ([3]; 0.5 mg/kg, FIG. 15A): 103%
Inhibition of RL (airway resistance) ([3]; 2.4 mg/kg, FIG. 15A): 94%
Inhibition of RL (airway resistance) ([3]; 10 mg/kg, FIG. 15A): 100%
Total number of infiltrating leukocytes in the bronchoalveolar fluid (in words) ([3]; 0.1, 0.5, 2.5, 10 mg/kg intra-tracheal, FIG. 14B): significantly reduced
Total protein content in the bronchoalveolar fluid ([3]; 0.1, 0.5, 2.5, 10 mg/kg intra-tracheal, all except 0.1 mg/kg significant (P<0.05), dose dependent, FIG. 14A): significantly reduced
Inhibitory effect on RL (airway resistance) ([3]; all doses, after 10 mg/ml methacholine, FIG. 15A): more than 90%
Effect on alterations of lung compliance (Cdyn) ([3]; represented as an increase in lung compliance, FIG. 15B): Inhibitory effects
Inhibition of IL-13 dependent proliferation of TF-1 cells (in words) ([4]; FIG. 16, IL-13 2.5 ng/ml): markedly inhibit
IL-13 mediated cell proliferation blocked ([4]; PPS concentrations of 5-10 μg/ml, TF-1 cells, 48 hours): 75-80%
